According to US20130158098A1, “Alkenyl Substituted Cycloaliphatic Compounds as Chemical Inducers of Proximity” (priority 2010, published 2013):

Tested on: ERK1/2 phosphorylation (SOS-PYLcs and myr-ABIcs)
Experiment: SOS activation: ABA-induced ERK phosphorylation by SOS localization
Assay type: cell-based, human
Details: cells expressing SOS-PYLcs and myr-ABIcs; 250 μM ABA
Protocol: Six-well plates of 293T cells containing 0.5×10^6 cells per well were transfected with 3 μg of total DNA using FuGENE HD (Roche). Cells were transfected with expression plasmids encoding myr-ABI, SOS-PYL, SOS-FKBP, myr-SOS, and an expression vector control, pUC19. ABA (250 μM) was added at 3, 6, 12, and 24 hours before harvesting the cells. Cells were lysed in 1× lysis buffer [50 mM Tris-HCl (pH 7.5), 300 mM NaCl, 1% NP-40, 0.1% SDS, 0.5% sodium deoxycholate, 20 mM NaF, 1 mM Na3VO4, 1 mM phenylmethylsulfonyl fluoride (PMSF), and 1× protease inhibitor mixture (Calbiochem)] for 20 min at 4° C. After centrifugation at 14,000 g for 15 min, proteins were separated on 4 to 12% bis-tris NuPAGE gels (Invitrogen) and transferred to polyvinylidene difluoride membranes. […] Infrared dye 800 and 680 anti-rabbit or anti-mouse secondary antibodies were incubated at room temperature for 1 hour in 10% BSA-PBST and detected with a LI-COR/Odyssey scanner. […]

## CC1=CC(=O)CC(C)(C)C1(O)/C=C/C(C)=C/C(=O)O (stereo not shown) [ABA, abscisic acid]
  phosphorylation of ERK: induced the phosphorylation of ERK
